# According to PubChem BioAssay (NCI):
#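 Grown in 96-well plates, cells were treated for 48 hours with each compound at five concentrations. Insufficient inhibition: endpoint recorded as highest concentration tested. At the TGI there is no net growth.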
# Tests used:
# Experiment in all cases: growth of human tumour cells (NCI), 48 h
# 786-0 renal = system: 786-0 renal
# A498 renal = system: A498 renal
# A549 NSCLC = system: A549 NSCLC
# ACHN renal = system: ACHN renal
# BT-549 breast = system: BT-549 breast
# CAKI-1 renal = system: CAKI-1 renal
# CCRF-CEM leukemia = system: CCRF-CEM leukemia
# COLO 205 colon = system: COLO 205 colon
# DU-145 prostate = system: DU-145 prostate
# EKVX NSCLC = system: EKVX NSCLC
# HCC-2998 colon = system: HCC-2998 colon
# HCT-116 colon = system: HCT-116 colon
# HCT-15 colon = system: HCT-15 colon
# HL-60(TB) leukemia = system: HL-60(TB) leukemia
# HOP-62 NSCLC = system: HOP-62 NSCLC
# HOP-92 NSCLC = system: HOP-92 NSCLC
# HS 578T breast = system: HS 578T breast
# HT29 colon = system: HT29 colon
# IGROV1 ovarian = system: IGROV1 ovarian
# K-562 leukemia = system: K-562 leukemia
# KM12 colon = system: KM12 colon
# LOX IMVI melanoma = system: LOX IMVI melanoma
# M14 melanoma = system: M14 melanoma
# MALME-3M melanoma = system: MALME-3M melanoma
# MCF7 breast = system: MCF7 breast
# MDA-MB-231 breast = system: MDA-MB-231 breast
# MDA-MB-435 = system: MDA-MB-435
# MDA-N = system: MDA-N
# MOLT-4 leukemia = system: MOLT-4 leukemia
# NCI-H226 lung = system: NCI-H226 lung
# NCI-H23 lung = system: NCI-H23 lung
# NCI-H460 lung = system: NCI-H460 lung
# NCI-H522 lung = system: NCI-H522 lung
# NCI/ADR-RES ovarian = system: NCI/ADR-RES ovarian
# OVCAR-3 ovarian = system: OVCAR-3 ovarian
# OVCAR-4 ovarian = system: OVCAR-4 ovarian
# OVCAR-5 ovarian = system: OVCAR-5 ovarian
# OVCAR-8 ovarian = system: OVCAR-8 ovarian
# PC-3 prostate = system: PC-3 prostate
# RPMI-8226 leukemia = system: RPMI-8226 leukemia
# RXF 393 renal = system: RXF 393 renal
# SF-268 CNS = system: SF-268 CNS
# SF-295 CNS = system: SF-295 CNS
# SF-539 CNS = system: SF-539 CNS
# SK-MEL-2 melanoma = system: SK-MEL-2 melanoma
# SK-MEL-28 melanoma = system: SK-MEL-28 melanoma
# SK-MEL-5 melanoma = system: SK-MEL-5 melanoma
# SK-OV-3 ovarian = system: SK-OV-3 ovarian
# SN12C renal = system: SN12C renal
# SNB-19 CNS = system: SNB-19 CNS
# SR leukemia = system: SR leukemia
# SW-620 colon = system: SW-620 colon
# T-47D breast = system: T-47D breast
# TK-10 renal = system: TK-10 renal
# U251 CNS = system: U251 CNS
# UACC-257 melanoma = system: UACC-257 melanoma
# UACC-62 melanoma = system: UACC-62 melanoma
# UO-31 renal = system: UO-31 renal
# SNB-75 CNS = system: SNB-75 CNS
smiles,measurement,setting,value
Nc1nc(-c2ccc3ccccc3c2)cc(-c2cc(-c3ccc4ccccc4c3)nc(N)n2)n1,TGI,786-0 renal,> 100 µM
same,TGI,A498 renal,> 100 µM
same,TGI,A549 NSCLC,> 100 µM
same,TGI,ACHN renal,> 100 µM
same,TGI,BT-549 breast,> 100 µM
same,TGI,CAKI-1 renal,> 100 µM
same,TGI,CCRF-CEM leukemia,> 100 µM
same,TGI,COLO 205 colon,> 100 µM
same,TGI,DU-145 prostate,> 100 µM
same,TGI,EKVX NSCLC,> 100 µM
same,TGI,HCC-2998 colon,> 100 µM
same,TGI,HCT-116 colon,> 100 µM
same,TGI,HCT-15 colon,> 100 µM
same,TGI,HL-60(TB) leukemia,> 100 µM
same,TGI,HOP-62 NSCLC,> 100 µM
same,TGI,HOP-92 NSCLC,> 100 µM
same,TGI,HS 578T breast,> 100 µM
same,TGI,HT29 colon,> 100 µM
same,TGI,IGROV1 ovarian,> 100 µM
same,TGI,K-562 leukemia,> 100 µM
same,TGI,KM12 colon,> 100 µM
same,TGI,LOX IMVI melanoma,> 100 µM
same,TGI,M14 melanoma,> 100 µM
same,TGI,MALME-3M melanoma,> 100 µM
same,TGI,MCF7 breast,> 100 µM
same,TGI,MDA-MB-231 breast,> 100 µM
same,TGI,MDA-MB-435,> 100 µM
same,TGI,MDA-N,> 100 µM
same,TGI,MOLT-4 leukemia,> 100 µM
same,TGI,NCI-H226 lung,> 100 µM
same,TGI,NCI-H23 lung,> 100 µM
same,TGI,NCI-H460 lung,> 100 µM
same,TGI,NCI-H522 lung,> 100 µM
same,TGI,NCI/ADR-RES ovarian,> 100 µM
same,TGI,OVCAR-3 ovarian,> 100 µM
same,TGI,OVCAR-4 ovarian,> 100 µM
same,TGI,OVCAR-5 ovarian,> 100 µM
same,TGI,OVCAR-8 ovarian,> 100 µM
same,TGI,PC-3 prostate,> 100 µM
same,TGI,RPMI-8226 leukemia,> 100 µM
same,TGI,RXF 393 renal,> 100 µM
same,TGI,SF-268 CNS,> 100 µM
same,TGI,SF-295 CNS,> 100 µM
same,TGI,SF-539 CNS,> 100 µM
same,TGI,SK-MEL-2 melanoma,> 100 µM
same,TGI,SK-MEL-28 melanoma,> 100 µM
same,TGI,SK-MEL-5 melanoma,> 100 µM
same,TGI,SK-OV-3 ovarian,> 100 µM
same,TGI,SN12C renal,> 100 µM
same,TGI,SNB-19 CNS,> 100 µM
same,TGI,SR leukemia,> 100 µM
same,TGI,SW-620 colon,> 100 µM
same,TGI,T-47D breast,> 100 µM
same,TGI,TK-10 renal,> 100 µM
same,TGI,U251 CNS,> 100 µM
same,TGI,UACC-257 melanoma,> 100 µM
same,TGI,UACC-62 melanoma,> 100 µM
same,TGI,UO-31 renal,> 100 µM
CCOC(=O)c1cc([N+](=O)[O-])cc([N+](=O)[O-])c1Sc1ncnc2nc[nH]c12,TGI,786-0 renal,2.07 µM
same,TGI,A498 renal,25.3 µM
same,TGI,A549 NSCLC,32.5 µM
same,TGI,ACHN renal,4.17 µM
same,TGI,BT-549 breast,8.59 µM
same,TGI,CAKI-1 renal,6.59 µM
same,TGI,CCRF-CEM leukemia,6.84 µM
same,TGI,COLO 205 colon,5.03 µM
same,TGI,DU-145 prostate,5.42 µM
same,TGI,EKVX NSCLC,13.1 µM
same,TGI,HCC-2998 colon,30.2 µM
same,TGI,HCT-116 colon,7.69 µM
same,TGI,HCT-15 colon,19.7 µM
same,TGI,HL-60(TB) leukemia,4.33 µM
same,TGI,HOP-62 NSCLC,24.5 µM
same,TGI,HOP-92 NSCLC,2.52 µM
same,TGI,HS 578T breast,71.2 µM
same,TGI,HT29 colon,15.3 µM
same,TGI,IGROV1 ovarian,6.13 µM
same,TGI,K-562 leukemia,> 100 µM
same,TGI,KM12 colon,18.1 µM
same,TGI,LOX IMVI melanoma,4.16 µM
same,TGI,M14 melanoma,2.66 µM
same,TGI,MCF7 breast,4.08 µM
same,TGI,MDA-MB-231 breast,24.9 µM
same,TGI,MDA-MB-435,4.27 µM
same,TGI,MDA-N,5.28 µM
same,TGI,MOLT-4 leukemia,> 26.8 µM
same,TGI,NCI-H226 lung,> 100 µM
same,TGI,NCI-H460 lung,33.9 µM
same,TGI,NCI-H522 lung,4.39 µM
same,TGI,NCI/ADR-RES ovarian,8.4 µM
same,TGI,OVCAR-3 ovarian,2.45 µM
same,TGI,OVCAR-4 ovarian,2.41 µM
same,TGI,OVCAR-5 ovarian,27.6 µM
same,TGI,OVCAR-8 ovarian,4.48 µM
same,TGI,PC-3 prostate,9.57 µM
same,TGI,RPMI-8226 leukemia,> 21.8 µM
same,TGI,RXF 393 renal,3.29 µM
same,TGI,SF-268 CNS,16 µM
same,TGI,SF-295 CNS,38.1 µM
same,TGI,SF-539 CNS,15.7 µM
same,TGI,SK-MEL-2 melanoma,9.43 µM
same,TGI,SK-MEL-28 melanoma,11.2 µM
same,TGI,SK-MEL-5 melanoma,27.7 µM
same,TGI,SK-OV-3 ovarian,23.3 µM
same,TGI,SN12C renal,5.34 µM
same,TGI,SNB-19 CNS,43 µM
same,TGI,SNB-75 CNS,25.1 µM
same,TGI,SR leukemia,> 100 µM
same,TGI,SW-620 colon,> 100 µM
same,TGI,T-47D breast,3.34 µM
same,TGI,TK-10 renal,9.55 µM
same,TGI,U251 CNS,24.8 µM
same,TGI,UACC-62 melanoma,21.3 µM
same,TGI,UO-31 renal,3.55 µM
